# Measured values from patent US20050069544A1, “Pharmaceutical composition and a method of treatment” (priority 1998, published 2005).
# Entries after “also recorded” stand apart in the source; their conditions may differ.
# Legend:
# [1] = test system: CD3+ CD4+ T-cells of RhD-alloimmunised donors; test: Three colour flow cytometry of CD3, CD4 and intracellular IFN-γ or IL-10 in PBMC from RhD-alloimmunised donors; assay type: cell-based, human; settings: CD3+ gated, representative alloimmune donor, 5 days; for proportion of CD4+ IL-10+ T-cells: unstimulated cultures 2.4%; for proportion of CD4+ IFN-γ+ T-cells: unstimulated cultures 4.2%
# Protocol: (§1) The secretion of cytokines identified in Example 1.3 by T-helper cells is confirmed by flow cytometery analysis. Simultaneous measurement of surface molecules CD3 and CD4 and intracellular cytokines IFN-γ or IL-10 was carried out using three colour flow cytometry analysis in PBMC, isolated from RhD-alloimmunised donors, cultured with either no antigen or RhD peptide for five days after stimulation. All analysis was carried out using Expo v2 analysis software (applied Cytometry Systems). The CD3+ T-cells were gated open and the numbers of IFN-γ+ and CD4+ cells were assessed. In all donors tested there was a significant increase in the proportion of CD4+ IFN-γ+CD3+ T-cells to at least one of the RhD peptides tested. In the representative example shown in FIGS. 12A to 12L it can be seen that the proportion of CD4+ IFN-γ+cells was 4.2% in unstimulated cultures (FIG. 12E). […] The IL-10 and CD4+ expression was also assessed on CD3+ gated population of T-cells. In PBMC cultures isolated from the alloimmune donor shown, there was an increase in the proportion of CD4+ IL-10+T-cells from 2.4% in unstimulated PBMC cultures (FIG. 12I) to 6.5% in culture stimulated with RhD peptide 13 (FIG. 12J) to 6.2% in cultures stimulated with RhD peptide 17 (FIG. 12K) and 5.9% with RhD peptide 28 (FIG. 12L).
# HLA-DR15 transgenic mice = test: Tolerisation in vivo to RhD protein in HLA-DR15 transgenic mice
# Protocol: HLA-DR15 transgenic mice were immunised twice with 2 mg/ml purified RhD protein. The first subcutaneous injection was followed 14 days later by an intraperitoneal injection. Mice were sacrificed 14 days after the final injection. The spleen was removed and blood collected by cardiac puncture.
# Fourteen days before RhD immunisation (as above) 25 μl of 2 mg/ml soluble RhD peptides were administered by the intranasal route.
# Fourteen days before RhD immunisation (as above) 25 μl of 2 mg/ml soluble RhD peptides were administered by the subcutaneous route.
# Splenocytes were homogenised and a single cell suspension was isolated over 40 μm mesh filters (Becton Dickinson) and resuspended to 1.25×10^6 cells/ml in the Alpha Modification of Eagle's Medium (ICN Flow, Bucks UK) supplemented with 5% autologous serum, 4 mM L-Glutamine (Gibco, Paisley, UK), 100 U/ml sodium benzylpenicillin G (Sigma), 100 μg/ml streptomycin sulphate (Sigma), 5×10^−5 2-mercaptoethanol (Sigma) and 20 mM HEPES pH7.2 (Sigma). All plates were incubated at 37° C. in a humidified atmosphere of 5% CO2/95% air. The cell proliferation in cultures was estimated from the incorporation of ^3H-thymidine (Amersham) in triplicate wells 5 days after stimulation with antigen. Proliferation results are presented either as the mean CPM±SD of the triplicate samples, or as a stimulation index (SI) expressing the ratio of mean CPM in stimulated versus unstimulated control cultures. An SI>3 with CPM>500 is interpreted as representing a positive response.
# Round bottomed microtitre plates (Nunc, Roskilde, Denmark) were blocked in phosphate buffered saline pH 7.4 (PBS) containing 0.2% bovine serum albumin (BSA), before addition of 50 μl 2% v/v washed human D-positive RBC. Test sera were incubated at 50 μl per well with triplicate RBC samples for 1 hour at 37° C. and washed three times in PBS-BSA before fixing for 30 minutes in 0.15% glutaraldehyde (Sigma, Dorset, UK) to prevent lysis of the cells in the alkaline conditions required later in the test. The fixed RBC were transferred to fresh, pre-blocked, 96-well plates and washed before incubation with 50 μl per well 1 μg/ml goat anti-mouse IgG γ-chain specific antibody (Sigma) or goat anti-mouse IgM μ-chain specific antibody (Sigma) for 1 hour at 37° C. After washing, the plates were incubated with 50 μl per well 1 μg/ml rabbit anti-goat IgG alkaline phosphatase (Sigma) for 1 hour at 37° C., washed, and 100 μl of phosphatase substrate solution was then incubated in each well for 1 hour at 37° C. After pelleting of the RBC by centrifugation, 50 μl of each supernatant was transferred into the wells of fresh, flat-bottomed microtitre plates (Nunc) and the absorbance measured at 405 nm, with 492 nm as a reference, using a multiscan plate reader (Labsystems, Basingstoke, UK). Each result is expressed as the mean of triplicate wells. Inter-assay variation was controlled for by including previously tested RBC samples on each plate.
# It is known from other animal models (Elson C J & Barker R N. Helper T-cells in antibody mediated, organ specific autoimmunity. Curr Opin Immunol, 2000; 12:664-669) that mucosal administration of immunodominant peptides which induce an immune response when given with adjuvant by the parenteral route will inhibit responsiveness, and induce antigen specific tolerance. To test the effectiveness of peptides containing immunodominant allo-RhD helper epitopes in preventing antibody response to the RhD protein, HLA-DR15 transgenic mice were used for the in vivo testing of these peptides as most alloimmunised donors responding to RhD bear this MHC class II allele.
# [2] = test system: PBMC from RhD alloimmunised donors; test: Cell proliferation assay (3H-thymidine) of PBMC from RhD alloimmunised donors stimulated with RhD peptides; assay type: cell-based, human; settings: peptide 20 μg/ml, 5 days
# Protocol: Five complete panels of 68 15-mer peptides, with 5 or 10 amino acid overlaps, were synthesized (Multiple Peptide Service, Cambridge Research Biochemicals, Cheshire, UK and Dept. Of Biochemistry, University of Bristol, UK), corresponding to the sequences of the 30 kD Rh proteins associated with expression of the RhD or RhcE/ce/Ce/CE blood group antigens respectively (Tables 1 to 5). An additional three peptide sequences is added to the panel of RhD peptides to account for the Ile to Met substitution described earlier (numbered from 69 to 71). The amino acid sequences for each of these proteins were deduced from cDNA analyses (FIG. 1). In order to ensure purity, each panel was synthesized by fluorenylmethoxycarbonyl chemistry on resin using a base-labile linker, rather than by conventional pin technology, and randomly selected peptides were screened for purity by HPLC and amino acid analysis.
# Peripheral blood mononuclear cells (PBMC) from donors or patients were separated from fresh blood samples using Ficoll-Hypaque. The donors and patients had become alloimmunised with RhD-positive blood either through pregnancy, a blood transfusion or through immunization with the relevant blood.
# PBMC were cultured in 100 μl volumes in microtitre plates at a concentration of 1.25×10^6 cells/ml in an Alpha Modification of Eagle's Medium (ICN Flow, Bucks UK) supplemented with 5% autologous serum, 4 mM L-Glutamine (Gibco, Paisley, UK), 100 U/ml sodium benzylpenicillin G (Sigma), 100 μg/ml streptomycin sulphate (Sigma), 5×10^−5M 2-mercaptoethanol (Sigma) and 20 mM HEPES pH7,2 (Sigma). All plates were incubated at 37° C. in a humidified atmosphere of 5% CO2/95% air. The cell proliferation in cultures was estimated from the incorporation of ^3H-Thymidine in triplicate wells 5 days after stimulation with antigen as described previously. Proliferation results are presented either as the mean CPM+/−SD of the triplicate samples, or as a stimulation index (SI), expressing the ratio of mean CPM in stimulated versus unstimulated control cultures. An S1>3 with CPM>1000 is interpreted as representing a positive response.
# [3] = test system: CD3+ CD4+ T-helper cells of AIHA patients; test: Flow cytometry of CD3, CD4 and intracellular cytokines in PBMC from AIHA patients; assay type: cell-based, human; settings: AIHA patient; for CD3+ CD4+ population of T-helper cells: FIGS. 23A to 23D; for CD4+ T-helper cells expressing intracellular IFN-γ: FIGS. 23E to 23H
# Protocol: as §1
# The secretion of cytokines identified in Example 2.3 by T-cells is confirmed utilising the experiments mentioned in Example 1.4, which were repeated using PBMC isolated from patients with AIHA.
# [4] = test system: PBMC from RhD-alloimmunised donors; test: celELISA of cytokine production (IL-10, TGF-β1) by PBMC from RhD alloimmunised donors; assay type: cell-based, human
# Protocol: Cultured T-cells are stimulated with each of the epitopes given in Table 1 and after 5 days the responding cells were transferred to flat-bottomed microtitre plates (96-well Nunc-Immuno Maxisorp) coated with […] per well of monoclonal anti-cytokine capture antibody diluted in 0.05M alkaline carbonate coating buffer pH 9.6. Unbound capture antibody was removed by two washes with HBSS and non-specific binding potential blocked by incubation with 200 μl per well of phosphate buffered saline, pH 7.4 (PBS containing 3% BSA).
# Five days after stimulation, lymphocyte cultures were mixed to resuspend the cells and duplicate 100 μl aliquots were transferred into wells coated with the respective capture antibody specific for IFN-γ, IL-10 or TGF-β. The plates coated with capture antibodies and layered by lymphocytes were then incubated for a further 24 hours at 37° C. in a humidified atmosphere of 5% CO2 and 95% air. After this incubation the PBMC were removed by four washes with 0.2% Tween/PBS. One hundred microlitre aliquots of the appropriate biotinylated monoclonal detection antibody in 0.2% BSA/PBS were then added to the wells and incubated at room temperature for 45 minutes.
# After six washes with 0.5% Tween/PBS, 100 μl of 1:100,000 ExtrAvidin-alkaline phosphatase conjugate (Sigma) was then added to each of the wells and incubated at room temperature for 30 minutes. The ExtrAvidin conjugate was removed by eight washes with 0.2% Tween/PBS, and the plates developed using 100 μl per well of p-nitrophenyl phosphate (Sigma) 1.0 mg/ml in 0.05M carbonate alkaline buffer pH9.6. The absorbance at 405 nm was then measured using a Multiscan plate reader (Labsystems Basingstoke UK).
# Cytokine secretion was measured by interpolation from a standard curve generated by incubating duplicate wells with doubling dilutions of recombinant human IFN-γ or IL-10 or TGF-β (Pharmingen). The standard curves were modelled by a smoothed cubic spline function applied to the absorbance reading and the cytokine concentrations after a quasilogarithmic transformation, where: quasiloge(z)=loge[z+{square root}[z^2+1]).
# Using celELISA technique, the 68 RhD peptide panel was screened for the ability to induce IL-10 and TGF-β production for PBMC from a total of 19 samples from 12 different alloimmune donors. PMBC from 10 out of the 12 RhD-alloimmunised donors could produce IL-10 to at least one of the RhD peptides on at least one occasion, with a total of 194 significant IL-10 responses to the RhD peptides between all the donors. The RhD peptides that induced significant TGF-β or IL-10 and proliferative responses from PBMC in all the samples screened are summarised in FIGS. 10 and 11.
# [5] = peptide intranasal 14 days before RhD immunisation
# [6] = nasal administration of peptide prior to RhD immunisation
# [7] = peptide parenteral (subcutaneous) before RhD immunisation
sequence,measurement,setting,value
AYFGLSVAWCLPKPL (Residue 177-191 RhD; listed as Homo sapiens) [peptide 28],proportion of CD4+ IL-10+ T-cells,[1],5.9%
same,proportion of CD4+ IFN-γ+ T-cells,[1],10.2%
same,RhD-specific proliferation by splenocytes after prior tolerisation,HLA-DR15 transgenic mice; [5],reduction in the RhD-specific proliferation
same,proliferative T-cell response to RhD peptides,[2],most commonly targeted
FLSQFPSGKVVITLF (Residue 97-111 RhD; listed as Homo sapiens) [peptide 13],proportion of CD4+ IL-10+ T-cells,[1],6.5%
same,RhD-specific proliferation by splenocytes after prior tolerisation,HLA-DR15 transgenic mice; [5],reduction in the RhD-specific proliferation
same,proliferative T-cell response to RhD peptides,[2],most commonly targeted
GALFLWMFWPSFNSA (Residue 212-226 RhD; listed as Homo sapiens) [compound 35],CD3+ CD4+ population of T-helper cells,[3],expansion of a CD3+ CD4+population of T-helper cells
same,CD4+ T-helper cells expressing intracellular IFN-γ,[3],expansion of CD4+ T-helper cells that express intracellular IFN-γ
QDLTVMAAIGLGFLT (Residue 52-66 RhD; listed as Homo sapiens) [peptide 6],IL-10 production by PBMC,[4]; FIG. 3 and FIG. 10,commonly induce the production of IL-10; also recorded: induce IL-10 production in the absence of a proliferative response or the production of IFN-γ or IL-4
same,RhD-specific proliferation by splenocytes after prior tolerisation,HLA-DR15 transgenic mice; [5],reduction in the RhD-specific proliferation
same,RhD-specific proliferation by splenocytes after prior tolerisation,"HLA-DR15 transgenic mice; peptide intranasal 14 days before RhD immunisation, listed as p6",reduced T-cell response to RhD protein
same,"serum anti-human RBC antibody, rr red blood cells",HLA-DR15 transgenic mice; peptide intranasal before RhD immunisation,reduction of anti-human RBC antibody
same,proliferative T-cell response to RhD peptides,[2],most commonly targeted
SIRLATMSALSVLIS (Residue 112-126 RhD; listed as Homo sapiens) [peptide 16],TGF-β1 production by PBMC,[4]; FIG. 3 and FIG. 11,commonly induce the production of TGF-β1
same,IL-10 production by draining lymph node cells,HLA-DR15 transgenic mice; [6],increase
same,TGF-β1 production by draining lymph node cells,HLA-DR15 transgenic mice; [6],increase
same,proliferative T-cell response to RhD peptides,[2],most commonly targeted
TMSALSVLISVDAVL (Residue 117-131 RhD; listed as Homo sapiens) [peptide 17],proportion of CD4+ IL-10+ T-cells,[1],6.2%
same,proportion of CD4+ IFN-γ+ T-cells,[1],20.3%
same,RhD-specific proliferation by splenocytes after prior tolerisation,HLA-DR15 transgenic mice; [5],reduction in the RhD-specific proliferation
same,proliferative T-cell response to RhD peptides,[2],most commonly targeted; also recorded: induces significant PBMC proliferation
same,percentage of donors in whom a proliferative response was elicited,"[2]; SI>3 with CPM>1000 positive, FIG. 6",70%
VGAGNGMIGFQVLLS (Residue 352-366 RhD; listed as Homo sapiens) [compound 60],RhD-specific proliferation by splenocytes after prior tolerisation,HLA-DR15 transgenic mice; [7],reduced T-cell response to RhD protein
same,"serum anti-human RBC antibody, rr red blood cells",HLA-DR15 transgenic mice; [7],no change
same,CD3+ CD4+ population of T-helper cells,[3],expansion of a CD3+ CD4+population of T-helper cells
same,CD4+ T-helper cells expressing intracellular IFN-γ,[3],expansion of CD4+ T-helper cells that express intracellular IFN-γ
